Measured values as given in patent US11142515B2, “Pyrazolyl-ureas as kinase inhibitors” (RESPIVERT LIMITED, priority 2014, dated 2021).

Tests used:
[1] = target: T1, p38 MAPKα isoform (MAPK14) (Homo sapiens, UniProt Q16539); assay: p38 MAPKα enzyme inhibition (Z-LYTE FRET); type: biochemical; conditions: Table 2B, unit inferred; read-out: p38 MAPKα (Enzyme Profile)
T1 construct: purchased Life Technologies
Summary of the method: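 Activity was measured indirectly as phosphorylation of a MAPKAP-K2-derived FRET peptide. Enzyme (added at 40 ng/mL) was preincubated 2 h at RT with compound (added solutions 40–0.0012 μg/mL).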

p38MAPKγ (MAPK12) = target: T2, p38MAPKγ (MAPK12) (Homo sapiens, UniProt P53778); assay: p38 MAPKγ enzyme inhibition (Z-LYTE FRET); type: biochemical; conditions: Table 2B, unit inferred; read-out: p38 MAPKγ (Enzyme Profile)
T2 construct: purchased Life Technologies
T2 sequence (P53778 1-367): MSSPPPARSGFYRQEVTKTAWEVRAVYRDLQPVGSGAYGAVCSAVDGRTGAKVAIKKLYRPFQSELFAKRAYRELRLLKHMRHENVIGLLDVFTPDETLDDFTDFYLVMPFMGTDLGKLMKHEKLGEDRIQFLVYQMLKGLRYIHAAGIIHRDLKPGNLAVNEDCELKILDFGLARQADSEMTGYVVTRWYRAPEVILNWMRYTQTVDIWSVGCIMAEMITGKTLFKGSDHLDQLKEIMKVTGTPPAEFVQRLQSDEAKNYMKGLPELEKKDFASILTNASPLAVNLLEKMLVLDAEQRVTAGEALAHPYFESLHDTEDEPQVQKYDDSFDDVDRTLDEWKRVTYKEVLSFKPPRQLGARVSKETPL
Summary of the method: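 Enzyme (added at 800 ng/mL) was preincubated 2 h at RT with compound (solutions of 40 to 0.0012 μg/mL), then FRET peptide (8 μM) and ATP (400 μM), both as added, were reacted 1 h at RT. Protease development followed for 1 h; phosphorylation was read as the coumarin/fluorescein emission ratio.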

d-U937 cells = assay: Cell viability: MTT assay in differentiated U937 cells; type: cell-based, human; conditions: 10 μg/mL
Protocol: Differentiated U937 cells were pre-incubated with each test compound (final concentration 10 μg/mL in 200 μL media indicated below) under two protocols: the first for 4 h in 5% FCS RPMI1640 media and the second in 10% FCS RPMI1640 media for 24 h. The supernatant was replaced with new media (200 μL) and MTT stock solution (10 μL, 5 mg/mL) was added to each well. After incubation for 1 h the media were removed, DMSO (200 μL) was added to each well and the plates were shaken lightly for 1 h prior to reading the absorbance at 550 nm. The percentage loss of cell viability was calculated for each well relative to vehicle (0.5% DMSO) treatment. Consequently an apparent increase in cell viability for drug treatment relative to vehicle is tabulated as a negative percentage.

T1 sequence (Q16539 whole entry, canonical isoform): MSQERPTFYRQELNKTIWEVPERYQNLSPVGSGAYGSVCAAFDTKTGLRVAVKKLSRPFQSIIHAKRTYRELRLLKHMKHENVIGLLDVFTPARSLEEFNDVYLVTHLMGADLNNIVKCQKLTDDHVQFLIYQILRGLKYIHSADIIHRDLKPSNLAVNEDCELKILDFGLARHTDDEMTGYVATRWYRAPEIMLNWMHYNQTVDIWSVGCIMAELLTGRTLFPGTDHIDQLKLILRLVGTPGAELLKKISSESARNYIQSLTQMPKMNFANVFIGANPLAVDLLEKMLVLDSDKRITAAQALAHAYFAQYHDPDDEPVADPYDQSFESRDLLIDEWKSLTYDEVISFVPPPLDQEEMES

| IC50 [1] [nM] | IC50 (p38MAPKγ (MAPK12)) [nM] | Structure (SMILES) | MTT Assay Cell viability at time point indicated in d-U937 Cells, 4 h (d-U937 cells; 4 h) | MTT Assay Cell viability at time point indicated in d-U937 Cells, 24 h (d-U937 cells; 24 h) |
| --- | --- | --- | --- | --- |
| 2.4 | 77 | Cc1ccc(-n2nc(C(C)(C)C)cc2NC(=O)Nc2ccc(OCc3ccnc(Nc4cnc(C(=O)N5CC[C@H](N(C)C)C5)cn4)c3)c3ccccc23)cc1 [Example 258, (S)-1-(3-(tert-butyl)-1-(p-tolyl)-1H-pyrazol-5-yl)-3-(4-((2-((5-(3-(dimethyl-amino)pyrrolidine-1-carbonyl)pyrazin-2-yl)amino)pyridin-4-yl)methoxy)naphthalen-1-yl)urea] |  |  |
| 1.2 | 146 | Cc1ccc(-n2nc(C(C)(C)C)cc2NC(=O)Nc2ccc(OCc3ccnc(Nc4cnc(C(=O)N5CC[C@@H](N(C)C)C5)cn4)c3)c3ccccc23)cc1 [Example 259, (R)-1-(3-(tert-butyl)-1-(p-tolyl)-1H-pyrazol-5-yl)-3-(4-((2-((5-(3-(dimethylamino)pyrrolidine-1-carbonyl)pyrazin-2-yl)amino)pyridin-4-yl)methoxy)naphthalen-1-yl)urea] |  |  |
| < 0.39 | 47 | Cc1ccc(-n2nc(C(C)(C)C)cc2NC(=O)Nc2ccc(OCc3ccnc(Nc4cnc(C(=O)NCCN5CCN(C)CC5)cn4)c3)c3ccccc23)cc1 [Example 260, 5-((4-(((4-(3-(3-(tert-butyl)-1-(p-tolyl)-1H-pyrazol-5-yl)ureido)naphthalen-1-yl)oxy)methyl)pyridin-2-yl)amino)-N-(2-(4-methylpiperazin-1-yl)ethyl)pyrazine-2-carboxamide] |  |  |
| 11 | 174 | COCc1cccc(-n2nc(C(C)(C)C)cc2NC(=O)Nc2ccc(OCc3ccnc(Nc4cnc(CN5CCOCC5)cn4)c3)c3ccccc23)c1 [Example 262, 1-(3-(tert-butyl)-1-(3-(methoxymethyl)phenyl)-1H-pyrazol-5-yl)-3-(4-((2-((5-(morpholinomethyl)pyrazin-2-yl)amino)pyridin-4-yl)methoxy)naphthalen-1-yl)urea] |  |  |
| < 0.4 | 138 | COCc1cccc(-n2nc(C(C)(C)C)cc2NC(=O)Nc2ccc(OCc3ccnc(Nc4cnc(C(=O)N5CCN(C)CC5)cn4)c3)c3ccccc23)c1 [Example 269, 1-(3-(tert-butyl)-1-(3-(methoxymethyl)phenyl)-1H-pyrazol-5-yl)-3-(4-((2-((5-(4-methylpiperazine-1-carbonyl)pyrazin-2-yl)amino)pyridin-4-yl)methoxy)naphthalen-1-yl)urea] |  |  |
| 4.5 | 66 | COCc1cccc(-n2nc(C(C)(C)C)cc2NC(=O)Nc2ccc(OCc3ccnc(Nc4cnc(C(=O)NCCN5CCOCC5)cn4)c3)c3ccccc23)c1 [Example 270, 5-((4-(((4-(3-(3-(tert-butyl)-1-(3-(methoxymethyl)phenyl)-1H-pyrazol-5-yl)ureido)naphthalen-1-yl)oxy)methyl)pyridin-2-yl)amino)-N-(2-morpholinoethyl) pyrazine-2-carboxamide] |  |  |

More lines, now with the values behind:

| Structure (SMILES) | IC50 [1] [nM] | IC50 (p38MAPKγ (MAPK12)) [nM] | MTT Assay Cell viability at time point indicated in d-U937 Cells, 4 h (d-U937 cells; 4 h) | MTT Assay Cell viability at time point indicated in d-U937 Cells, 24 h (d-U937 cells; 24 h) |
| --- | --- | --- | --- | --- |
| CN(C)Cc1cccc(-n2nc(C(C)(C)C)cc2NC(=O)Nc2ccc(OCc3ccnc(Nc4cnccn4)c3)c3ccccc23)c1 [Example 261, 1-(3-(tert-butyl)-1-(3-((dimethylamino)methyl)phenyl)-1H-pyrazol-5-yl)-3-(4-((2-(pyrazin-2-ylamino)pyridin-4-yl)methoxy)naphthalen-1-yl)urea] | < 0.47 | 146 |  |  |
| Cc1ccc(-n2nc(C(C)(C)C)cc2NC(=O)Nc2ccc(OCc3ccnc(Nc4cnc(CN5CCOCC5)cn4)c3)c3ccccc23)cc1 [Example 263, 1-(3-(tert-butyl)-1-(p-tolyl)-1H-pyrazol-5-yl)-3-(4-((2-((5-(morpholinomethyl)pyrazin-2-yl)amino)pyridin-4-yl)methoxy)naphthalen-1-yl)urea] | 21 | 218 |  |  |
| COc1cc(-n2nc(C(C)(C)C)cc2NC(=O)Nc2ccc(OCc3ccnc(Nc4cnccn4)c3)c3ccccc23)ccn1 [Example 264, 1-(3-(tert-butyl)-1-(2-methoxypyridin-4-yl)-1H-pyrazol-5-yl)-3-(4-((2-(pyrazin-2-ylamino)pyridin-4-yl)methoxy)naphthalen-1-yl)urea] | 23 | 109 |  |  |
| Cc1cc(-n2nc(C(C)(C)C)cc2NC(=O)Nc2ccc(OCc3ccnc(Nc4cnccn4)c3)c3ccccc23)ccn1 [Example 265, 1-(3-(tert-butyl)-1-(2-methyl-pyridin-4-yl)-1H-pyrazol-5-yl)-3-(4-((2-(pyrazin-2-ylamino)pyridin-4-yl)methoxy)naphthalen-1-yl) urea] | 11 | 57 |  |  |
| Cc1ccc(-n2nc(C(C)(C)C)cc2NC(=O)Nc2ccc(OCc3ccnc(Nc4cnc(C(=O)NCCC5CCN(C)CC5)cn4)c3)c3ccccc23)cc1 [Example 266, 5-((4-(((4-(3-(3-(tert-butyl)-1-(p-tolyl)-1H-pyrazol-5-yl)ureido)naphthalen-1-yl)oxy)methyl)pyridin-2-yl)amino)-N-(2-(1-methyl-piperidin-4-yl)ethyl) pyrazine-2-carboxamide] | < 0.39 | 51 |  |  |
| CN(C)Cc1ccc(-n2nc(C(C)(C)C)cc2NC(=O)Nc2ccc(OCc3ccnc(Nc4cnccn4)c3)c3ccccc23)cc1 [Example 267, 1-(3-(tert-butyl)-1-(4-((dimethylamino)methyl)phenyl)-1H-pyrazol-5-yl)-3-(4-((2-(pyrazin-2-ylamino)pyridin-4-yl)methoxy)naphthalen-1-yl)urea] | < 0.47 | 2040 |  |  |
| Cc1ccc(-n2nc(C(C)(C)C)cc2NC(=O)Nc2ccc(OCc3ccnc(Nc4cnc(C(=O)NCCN(C)C)cn4)c3)c3ccccc23)cc1 [Example 268, 5-((4-(((4-(3-(3-(tert-butyl)-1-(p-tolyl)-1H-pyrazol-5-yl)ureido)naphthalen-1-yl)oxy)methyl)pyridin-2-yl)amino)-N-(2-(dimethylamino)ethyl) pyrazine-2-carboxamide] | < 0.42 | 74 |  |  |
| COCC(=O)Nc1cc(Oc2ccc(NC(=O)Nc3cc(C(C)(C)C)nn3-c3ccc(C)cc3)c3ccccc23)ccn1 [Reference Compound, N-(4-(4-(3-(3-tert-butyl-1-p-tolyl-1H-pyrazol-5-yl)ureido)naphthalen-1-yloxy)pyridin-2-yl)-2-methoxyacetamide, reference compound] |  |  | − (−ve and +ve indicate the value is below and above, respectively, the no significant effect threshold defined as 30% inhibition at 10 μg/mL at the time point indicated) | + (−ve and +ve indicate the value is below and above, respectively, the no significant effect threshold defined as 30% inhibition at 10 μg/mL at the time point indicated) |
